From ChEMBL document CHEMBL1201862, “PubChem BioAssay data set” (2004)
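Interpolation was linear, between the two tested concentrations surrounding the appropriate level; five concentrations were tested over 48 hours in 96-well plates. GI50 marks 50% less growth.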 The source made the active and inactive calls. Rule as the data show it: active = GI50 up to about 1.1 µM and inactive = higher.

Experiments:
Assay in all cases: growth of human tumour cells (NCI), 48 h
DMS-114 = test system: DMS-114
RXF 393 = test system: RXF 393
SK-MEL-28 = test system: SK-MEL-28
UACC-257 = test system: UACC-257
TK-10 = test system: TK-10
HCT-15 = test system: HCT-15
SK-MEL-5 = test system: SK-MEL-5
ACHN = test system: ACHN
SNB-75 = test system: SNB-75
UACC-62 = test system: UACC-62
IGROV-1 = test system: IGROV-1
MOLT-4 = test system: MOLT-4
M14 = test system: M14
RPMI-8226 = test system: RPMI-8226
OVCAR-5 = test system: OVCAR-5
XF498 = test system: XF498
SK-OV-3 = test system: SK-OV-3
KM12 = test system: KM12
A549 = test system: A549
SNB-19 = test system: SNB-19
HOP-62 = test system: HOP-62
Malme-3M = test system: Malme-3M
UO-31 = test system: UO-31
786-0 = test system: 786-0
NCI-H23 = test system: NCI-H23
LXFL 529 = test system: LXFL 529
OVCAR-4 = test system: OVCAR-4
K562 = test system: K562
OVCAR-3 = test system: OVCAR-3
NCI-H522 = test system: NCI-H522
OVCAR-8 = test system: OVCAR-8
HOP-92 = test system: HOP-92
SN12C = test system: SN12C
M19-MEL = test system: M19-MEL
CAKI-1 = test system: CAKI-1
HT-29 = test system: HT-29
SW-620 = test system: SW-620
DMS-273 = test system: DMS-273
CCRF-CEM = test system: CCRF-CEM
SK-MEL-2 = test system: SK-MEL-2
NCI-H460 = test system: NCI-H460
HCC 2998 = test system: HCC 2998
KM-20L2 = test system: KM-20L2
COLO 205 = test system: COLO 205
HL-60 = test system: HL-60
SF-268 = test system: SF-268
DLD-1 = test system: DLD-1
LOX IMVI = test system: LOX IMVI
EKVX = test system: EKVX
SF-295 = test system: SF-295
U-251 = test system: U-251
HCT-116 = test system: HCT-116
SR = test system: SR
A498 = test system: A498
SF-539 = test system: SF-539
NCI-H226 = test system: NCI-H226
SNB-78 = test system: SNB-78

SMILES: C1=CC(=NN=P(c2ccccc2)(c2ccccc2)c2ccccc2)C=C1
- GI50 (DMS-114): 51.9 µM (inactive)
- GI50 (RXF 393): > 100 µM (inactive)
- GI50 (SK-MEL-28): > 100 µM (inactive)
- GI50 (UACC-257): > 100 µM (inactive)
- GI50 (TK-10): > 100 µM (inactive)
- GI50 (HCT-15): > 100 µM
- GI50 (SK-MEL-5): > 100 µM (inactive)
- GI50 (ACHN): > 100 µM (inactive)
- GI50 (SNB-75): > 100 µM (inactive)
- GI50 (UACC-62): > 100 µM (inactive)
- GI50 (IGROV-1): > 100 µM (inactive)
- GI50 (MOLT-4): > 100 µM (inactive)
- GI50 (M14): > 100 µM (inactive)
- GI50 (RPMI-8226): > 100 µM (inactive)
- GI50 (OVCAR-5): > 100 µM (inactive)
- GI50 (XF498): > 100 µM (inactive)
- GI50 (SK-OV-3): > 100 µM (inactive)
- GI50 (KM12): > 100 µM (inactive)
- GI50 (A549): > 100 µM (inactive)
- GI50 (SNB-19): > 100 µM (inactive)
- GI50 (HOP-62): > 100 µM (inactive)
- GI50 (Malme-3M): > 100 µM (inactive)
- GI50 (UO-31): > 100 µM (inactive)
- GI50 (786-0): > 100 µM (inactive)
- GI50 (NCI-H23): > 100 µM (inactive)
- GI50 (LXFL 529): > 100 µM (inactive)
- GI50 (OVCAR-4): > 100 µM (inactive)
- GI50 (K562): 64 µM (inactive)
- GI50 (OVCAR-3): > 100 µM (inactive)
- GI50 (NCI-H522): 88.5 µM (inactive)
- GI50 (OVCAR-8): > 100 µM (inactive)
- GI50 (HOP-92): 55.2 µM (inactive)
- GI50 (SN12C): > 100 µM (inactive)
- GI50 (M19-MEL): > 100 µM (inactive)
- GI50 (CAKI-1): > 100 µM (inactive)
- GI50 (HT-29): > 100 µM (inactive)
- GI50 (SW-620): > 100 µM (inactive)
- GI50 (DMS-273): > 100 µM (inactive)
- GI50 (CCRF-CEM): > 100 µM (inactive)
- GI50 (SK-MEL-2): > 100 µM (inactive)
- GI50 (NCI-H460): > 100 µM (inactive)
- GI50 (HCC 2998): > 100 µM (inactive)
- GI50 (KM-20L2): > 100 µM (inactive)
- GI50 (COLO 205): > 100 µM (inactive)
- GI50 (HL-60): 98.2 µM (inactive)
- GI50 (SF-268): > 100 µM (inactive)
- GI50 (DLD-1): > 100 µM (inactive)
- GI50 (LOX IMVI): > 100 µM (inactive)
- GI50 (EKVX): > 100 µM (inactive)

SMILES: CCOC(=O)C(NC(=O)c1nc[nH]c1/N=N/N(C)C)C(C)C (configuration not stated)
- GI50 (SF-295): > 100 µM (inactive)
- GI50 (DMS-114): > 100 µM (inactive)
- GI50 (SK-MEL-28): > 100 µM (inactive)
- GI50 (UACC-257): > 100 µM (inactive)
- GI50 (U-251): 40.8 µM (inactive)
- GI50 (TK-10): > 100 µM (inactive)
- GI50 (HCT-15): > 100 µM
- GI50 (SK-MEL-5): > 100 µM (inactive)
- GI50 (ACHN): > 100 µM (inactive)
- GI50 (HCT-116): > 100 µM (inactive)
- GI50 (SNB-75): > 100 µM (inactive)
- GI50 (UACC-62): > 100 µM (inactive)
- GI50 (IGROV-1): > 100 µM (inactive)
- GI50 (MOLT-4): > 100 µM (inactive)
- GI50 (M14): > 100 µM (inactive)
- GI50 (RPMI-8226): > 100 µM (inactive)
- GI50 (OVCAR-5): > 100 µM (inactive)
- GI50 (SR): > 100 µM (inactive)
- GI50 (SK-OV-3): > 100 µM (inactive)
- GI50 (KM12): > 100 µM (inactive)
- GI50 (A498): > 100 µM (inactive)
- GI50 (A549): > 100 µM (inactive)
- GI50 (SNB-19): > 100 µM (inactive)
- GI50 (HOP-62): > 100 µM (inactive)
- GI50 (Malme-3M): > 100 µM (inactive)
- GI50 (UO-31): > 100 µM (inactive)
- GI50 (786-0): > 100 µM (inactive)
- GI50 (NCI-H23): > 100 µM (inactive)
- GI50 (LXFL 529): > 100 µM (inactive)
- GI50 (OVCAR-4): > 100 µM (inactive)
- GI50 (K562): > 100 µM (inactive)
- GI50 (OVCAR-3): > 100 µM (inactive)
- GI50 (NCI-H522): > 100 µM (inactive)
- GI50 (OVCAR-8): > 100 µM (inactive)
- GI50 (SN12C): > 100 µM (inactive)
- GI50 (M19-MEL): > 100 µM (inactive)
- GI50 (CAKI-1): > 100 µM (inactive)
- GI50 (HT-29): > 100 µM (inactive)
- GI50 (SF-539): > 100 µM (inactive)
- GI50 (SW-620): > 100 µM (inactive)
- GI50 (DMS-273): > 100 µM (inactive)
- GI50 (CCRF-CEM): > 100 µM (inactive)
- GI50 (SK-MEL-2): > 100 µM (inactive)
- GI50 (NCI-H460): > 100 µM (inactive)
- GI50 (HCC 2998): > 100 µM (inactive)
- GI50 (NCI-H226): > 100 µM (inactive)
- GI50 (COLO 205): > 100 µM (inactive)
- GI50 (HL-60): > 100 µM (inactive)
- GI50 (SF-268): > 100 µM (inactive)
- GI50 (DLD-1): > 100 µM (inactive)
- GI50 (LOX IMVI): > 100 µM (inactive)
- GI50 (EKVX): > 100 µM (inactive)

SMILES: CCOC(=O)c1cnc2oc(-c3ccc(OC)cc3)nn2c1=O
- GI50 (SF-295): > 100 µM (inactive)
- GI50 (DMS-114): > 100 µM (inactive)
- GI50 (RXF 393): 93.1 µM (inactive)
- GI50 (SK-MEL-28): > 100 µM (inactive)
- GI50 (UACC-257): > 100 µM (inactive)
- GI50 (U-251): > 100 µM (inactive)
- GI50 (TK-10): > 100 µM (inactive)
- GI50 (SNB-78): > 100 µM (inactive)
- GI50 (HCT-15): > 100 µM
- GI50 (SK-MEL-5): > 100 µM (inactive)
- GI50 (HCT-116): > 100 µM (inactive)
- GI50 (SNB-75): 45.3 µM (inactive)
- GI50 (UACC-62): 71.1 µM (inactive)
- GI50 (IGROV-1): > 100 µM (inactive)
- GI50 (MOLT-4): > 100 µM (inactive)
- GI50 (RPMI-8226): > 100 µM (inactive)
- GI50 (OVCAR-5): > 100 µM (inactive)
- GI50 (SR): > 10 µM (inactive)
- GI50 (SK-OV-3): > 100 µM (inactive)
- GI50 (KM12): > 100 µM (inactive)
- GI50 (A549): > 100 µM (inactive)
- GI50 (SNB-19): > 100 µM (inactive)
- GI50 (Malme-3M): > 100 µM (inactive)
- GI50 (UO-31): > 100 µM (inactive)
- GI50 (786-0): > 100 µM (inactive)
- GI50 (NCI-H23): > 100 µM (inactive)
- GI50 (LXFL 529): > 100 µM (inactive)
- GI50 (OVCAR-4): > 100 µM (inactive)
- GI50 (K562): > 100 µM (inactive)
- GI50 (OVCAR-3): > 100 µM (inactive)
- GI50 (NCI-H522): 79.1 µM (inactive)
- GI50 (OVCAR-8): > 100 µM (inactive)
- GI50 (HOP-92): 29.5 µM (inactive)
- GI50 (SN12C): > 100 µM (inactive)
- GI50 (M19-MEL): > 100 µM (inactive)
- GI50 (HT-29): > 100 µM (inactive)
- GI50 (SF-539): > 100 µM (inactive)
- GI50 (SW-620): > 100 µM (inactive)
- GI50 (DMS-273): > 100 µM (inactive)
- GI50 (SK-MEL-2): > 100 µM (inactive)
- GI50 (HCC 2998): > 100 µM (inactive)
- GI50 (KM-20L2): > 100 µM (inactive)
- GI50 (NCI-H226): > 100 µM (inactive)
- GI50 (COLO 205): > 100 µM (inactive)
- GI50 (SF-268): > 100 µM (inactive)
- GI50 (EKVX): > 100 µM (inactive)
